From patent US7196192B2, “28-epirapalogs” (Ariad Gene Therapeutics, Inc., priority 1999, dated 2007)
Like-named read-outs stand apart in the source and are kept apart here.

How the values were obtained:
FKBP = FKBP (Homo sapiens, UniProt P62942); experiment: FKBP competitive binding assay based on fluorescence polarization (FP); conditions: competitive FP binding, methods of Example 2.5
Procedure: A Competitive Binding FP Assay is described in detail in WO99/36553 and WO96/41865. That assay permits the in vitro measurement of an IC50 value for a given compound which reflects its ability to bind to an FKBP-protein in competition with a labeled FKBP ligand, such as, for example, FK506.
(§1) A diverse group of C7-modified 28-epirapalogs were prepared as described in Example 4.

[1] = target: T1, transcriptional switch components containing FKBP and 2098L mutant FRB domains (Homo sapiens, UniProt P42345+P62942); experiment: transcription assay in engineered HD1080 cells expressing SEAP (txn 2098L); assay type: cell-based
T1 construct: transcriptional switchcomponents containing FKBP and 2098L mutant FRB domains, respectively; fused on or other part: The two switch components are separate chimeric proteins; Neither is given for this cell line
Excerpt: The ability of the rapalogs to multimerize chimeric proteins may be measured in cell-based assays by measuring the occurrence of an event triggered by such multimerization. For instance, one may use cells containing and capable of expressing DNA encoding a first chimeric protein comprising one or more FKBP-domains and one or more effector domains as well as DNA encoding a second chimeric protein containing an FRB domain and one or more effector domains capable, upon multimerization, of actuating a biological response. We prefer to use cells which further contain a reporter gene under the transcriptional control of a regulatory element (i.e., promoter) which is responsive to the multimerization of the chimeric proteins. The design and preparation of illustrative components and their use in so engineered cells is described in WO99/36553 and WO96/41865 and the other international patent applications referred to in this and the foregoing section. (See also W099/10510 for additional guidance on the design, assembly and delivery of nucleic acids to render cells and animals responsive to rapalogs of interest and for additional guidance on applications of such systems.) The cells are grown or maintained in culture. A rapalog is added to the culture medium and after a suitable incubation period (to permit gene expression and secretion, e.g. several hours or overnight) the presence of the reporter gene product is measured. Positive results, i.e., multimerization, correlates with transcription of the reporter gene as observed by the appearance of the reporter gene product. The reporter gene product may be a conveniently detectable protein (e.g. by ELISA) or may catalyze the production of a conveniently detectable product (e.g. colored). Materials and methods for producing appropriate cell lines for conducting such assays are disclosed in the international patent applications cited above in this section.
2. EC50 values of the various compounds was measured in a transcription assay using genetically engineered HD1080 cells which constitutively express transcriptional switch components containing FKBP and 2098L mutant FRB domains, respectively and which regulatably express secreted alkaline phosphatase (SEAP) in the presence of a compound which multimerizes the switch components. The assay is a literature assay. See WO 99/36553, e.g. Example 12, pages 120–121 (& FIG. 2D) […]

murine splenocyte = murine splenocyte assay for immunosuppressive activity; assay type: cell-based; conditions: mouse splenocyte assay, methods of Example 2.5, read-out: Splenocyte IC50
Procedure: 3. Conventional murine splenocyte assay for immunosuppressive activity.
as §1

[2] = cellular transcription assay, methods of Example 2.5; read-out: TXN 2098L EC50
[3] = read-out: TXN 2098L EC50; cellular transcription assay, methods of Example 2.5

FKBP, sequence (P62942 whole entry): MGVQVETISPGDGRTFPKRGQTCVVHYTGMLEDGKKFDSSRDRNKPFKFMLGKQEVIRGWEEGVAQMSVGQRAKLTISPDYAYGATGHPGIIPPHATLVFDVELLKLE
T1 sequence (P62942 2-108 limits assumed, stated change not applied, other chains not shown): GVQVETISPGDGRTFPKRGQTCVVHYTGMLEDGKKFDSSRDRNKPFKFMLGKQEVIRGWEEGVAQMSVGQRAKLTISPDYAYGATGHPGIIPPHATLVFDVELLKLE

Compound | IC50 (FKBP; read-out: FKBP IC50) | EC50 [1, 2] | TXN 2098L peak relative to rapamycin peak ([1]; superscript mark on EC50 cell) | IC50 (murine splenocyte; Mus musculus, Splenocyte) | IC50 (murine splenocyte) | IC50 (FKBP; FKBP IC50 (nM)) | EC50 [1, 3]
CCCS(=O)(=O)N(C)C1CC2CCC(C)C(O)(O2)C(=O)C(=O)N2CCCCC2C(=O)OC(C(C)CC2CCC(O)C(OC)C2)CC(=O)C(C)C=C(C)C(O)C(OC)C(=O)C(C)CC(C)C=CC=CC=C1C (single isomer, unassigned) [28-epi-7S-N-Me-propanesulfonamide] | 19 nM | 35 nM | (+) (peak was >125% rapamycin peak) | 2630 nM |  |  | 
CCOC(=O)N(C)C1CC2CCC(C)C(O)(O2)C(=O)C(=O)N2CCCCC2C(=O)OC(C(C)CC2CCC(O)C(OC)C2)CC(=O)C(C)C=C(C)C(O)C(OC)C(=O)C(C)CC(C)C=CC=CC=C1C (single isomer, unassigned) [28-epi-7S-N-methyl-ethylcarbamate] | 30 nM | 12 nM | (−) (peak was <80% rapamycin peak) |  | 2290 nM |  | 
COC1CC(CC(C)C2CC(=O)C(C)C=C(C)C(O)C(OC)C(=O)C(C)CC(C)C=CC=CC=C(C)C(OCc3ccccc3)CC3CCC(C)C(O)(O3)C(=O)C(=O)N3CCCCC3C(=O)O2)CCC1O (single isomer, unassigned) [28-epi-7S-benzyloxy] | 70 nM | 18 nM |  |  | 93 nM |  | 
CCN([C@@H]1C[C@@H]2CC[C@@H](C)[C@@](O)(O2)C(=O)C(=O)N2CCCC[C@H]2C(=O)O[C@H]([C@H](C)C[C@@H]2CC[C@@H](O)[C@H](OC)C2)CC(=O)[C@H](C)/C=C(\C)[C@H](O)[C@@H](OC)C(=O)[C@H](C)C[C@H](C)/C=C/C=C/C=C/1C)S(C)(=O)=O [28-epi-7R-N-Et-methanesulfonamide] |  |  | (+) (peak was >125% rapamycin peak) | 189 nM |  | 31 nM | 8 nM
CO[C@@H]1C[C@H](C[C@@H](C)[C@@H]2CC(=O)[C@H](C)/C=C(\C)[C@H](O)[C@@H](OC)C(=O)[C@H](C)C[C@H](C)/C=C/C=C/C=C(\C)[C@H](N(C)C(=O)OCc3ccccc3)C[C@@H]3CC[C@@H](C)[C@@](O)(O3)C(=O)C(=O)N3CCCC[C@H]3C(=O)O2)CC[C@H]1O [28-epi-7R-N-Me-benzylcarbamate] | 163 nM | 8 nM | (−) (peak was <80% rapamycin peak) | 1150 nM |  |  | 
CO[C@@H]1C[C@H](C[C@@H](C)[C@@H]2CC(=O)[C@H](C)/C=C(\C)[C@H](O)[C@@H](OC)C(=O)[C@H](C)C[C@H](C)/C=C/C=C/C=C(\C)[C@H](N(C)S(C)(=O)=O)C[C@@H]3CC[C@@H](C)[C@@](O)(O3)C(=O)C(=O)N3CCCC[C@H]3C(=O)O2)CC[C@H]1O [28-epi-7R-N-Me-methanesulfonamide] | 37 nM | 8 nM |  | 166 nM |  |  | 
CO[C@@H]1C[C@H](C[C@@H](C)[C@@H]2CC(=O)[C@H](C)/C=C(\C)[C@H](O)[C@@H](OC)C(=O)[C@H](C)C[C@H](C)/C=C/C=C/C=C(\C)[C@H](N(C)S(=O)(=O)c3ccc(C)cc3)C[C@@H]3CC[C@@H](C)[C@@](O)(O3)C(=O)C(=O)N3CCCC[C@H]3C(=O)O2)CC[C@H]1O [28-epi-7R-N-Me-p-toluenesulfonamide] |  |  |  | 12 nM |  | 34 nM | 8 nM
CO[C@@H]1C[C@H](C[C@@H](C)[C@@H]2CC(=O)[C@H](C)/C=C(\C)[C@H](O)[C@@H](OC)C(=O)[C@H](C)C[C@H](C)/C=C/C=C/C=C(\C)[C@H](N(C)C(=O)Oc3ccc(C)cc3)C[C@@H]3CC[C@@H](C)[C@@](O)(O3)C(=O)C(=O)N3CCCC[C@H]3C(=O)O2)CC[C@H]1O [28-epi-7R-N-Me-p-tolylcarbamate] | 119 nM | 70 nM |  |  | 393 nM |  | 
C=CCO[C@@H]1C[C@@H]2CC[C@@H](C)[C@@](O)(O2)C(=O)C(=O)N2CCCC[C@H]2C(=O)O[C@H]([C@H](C)C[C@@H]2CC[C@@H](O)[C@H](OC)C2)CC(=O)[C@H](C)/C=C(\C)[C@H](O)[C@@H](OC)C(=O)[C@H](C)C[C@H](C)/C=C/C=C/C=C/1C [28-epi-7R-allyloxy] |  |  |  | 3400 nM |  | 11 nM | 25 nM
COC1CC(CC(C)C2CC(=O)C(C)C=C(C)C(O)C(OC)C(=O)C(C)CC(C)C=CC=CC=C(C)C(NC(=O)OCc3ccccc3)CC3CCC(C)C(O)(O3)C(=O)C(=O)N3CCCCC3C(=O)O2)CCC1O (stereo not drawn) [28-epi-7R-benzylcarbamate] | 12 nM | 9 nM | (+) (peak was >125% rapamycin peak) |  | 2260 nM |  | 
CCCCS(=O)(=O)N[C@@H]1C[C@@H]2CC[C@@H](C)[C@@](O)(O2)C(=O)C(=O)N2CCCC[C@H]2C(=O)O[C@H]([C@H](C)C[C@@H]2CC[C@@H](O)[C@H](OC)C2)CC(=O)[C@H](C)/C=C(\C)[C@H](O)[C@@H](OC)C(=O)[C@H](C)C[C@H](C)/C=C/C=C/C=C/1C [28-epi-7R-butanesulfonamide] | 11 nM | 20 nM |  | 0.16 nM |  |  | 
COc1ccc(C2CC3CCC(C)C(O)(O3)C(=O)C(=O)N3CCCCC3C(=O)OC(C(C)CC3CCC(O)C(OC)C3)CC(=O)C(C)C=C(C)C(O)C(OC)C(=O)C(C)CC(C)C=CC=CC=C2C)c(OC)c1 (stereo not drawn) [28-epi-7R-dimethoxyphenyl] | 54 nM | 26 nM |  |  | 22 to 28 nM |  | 
COC1CC(CC(C)C2CC(=O)C(C)C=C(C)C(O)C(OC)C(=O)C(C)CC(C)C=CC=CC=C(C)C(NS(=O)(=O)N(C)C)CC3CCC(C)C(O)(O3)C(=O)C(=O)N3CCCCC3C(=O)O2)CCC1O (stereo not drawn) [28-epi-7R-dimethylsulfamide] | 29 nM | 20 nM | (+) (peak was >125% rapamycin peak) |  | 1840 nM |  | 
CCOC(=O)N[C@@H]1C[C@@H]2CC[C@@H](C)[C@@](O)(O2)C(=O)C(=O)N2CCCC[C@H]2C(=O)O[C@H]([C@H](C)C[C@@H]2CC[C@@H](O)[C@H](OC)C2)CC(=O)[C@H](C)/C=C(\C)[C@H](O)[C@@H](OC)C(=O)[C@H](C)C[C@H](C)/C=C/C=C/C=C/1C [28-epi-7R-ethylcarbamate] |  |  | (+) (peak was >125% rapamycin peak) | > 5000 nM |  | 7.5 nM | 9 nM
CO[C@@H]1C[C@H](C[C@@H](C)[C@@H]2CC(=O)[C@H](C)/C=C(\C)[C@H](O)[C@@H](OC)C(=O)[C@H](C)C[C@H](C)/C=C/C=C/C=C(\C)[C@H](NS(C)(=O)=O)C[C@@H]3CC[C@@H](C)[C@@](O)(O3)C(=O)C(=O)N3CCCC[C@H]3C(=O)O2)CC[C@H]1O [28-epi-7R-methanesulfonamide] | 7.2 nM | 24 nM |  | 91 nM |  |  | 
CO[C@@H]1C[C@H](C[C@@H](C)[C@@H]2CC(=O)[C@H](C)/C=C(\C)[C@H](O)[C@@H](OC)C(=O)[C@H](C)C[C@H](C)/C=C/C=C/C=C(\C)[C@H](NS(=O)(=O)N(C)c3ccccc3)C[C@@H]3CC[C@@H](C)[C@@](O)(O3)C(=O)C(=O)N3CCCC[C@H]3C(=O)O2)CC[C@H]1O [28-epi-7R-methylphenylsulfamide] | 38 nM | 27 nM |  |  | 22 nM |  | 
COC1CC(CC(C)C2CC(=O)C(C)C=C(C)C(O)C(OC)C(=O)C(C)CC(C)C=CC=CC=C(C)C(c3ccc(C)s3)CC3CCC(C)C(O)(O3)C(=O)C(=O)N3CCCCC3C(=O)O2)CCC1O (stereo not drawn) [28-epi-7R-methylthiophene] | 120 nM | 22 nM |  |  | 394 to 424 nM |  | 
